Laboratory results taken from patent publication US20240217951A1, “PCSK9 INHIBITORS AND METHODS OF USE THEREOF” (AstraZeneca AB, priority 2022, published 2024).

Tests used:
[1] = target: GSK3β (Glycogen synthase kinase-3 beta) (Homo sapiens, UniProt P49841); assay: Assay 6 - GSK3β assay (ThermoFisher Z-Lyte); type: biochemical; conditions: geometric mean; ATP Conc: 10 μM; read-out: Assay 6 (GSK3β FRET-Z-Lyte CR) GMean IC50 (μM) ATP Conc: 10
Summary of the method: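 Z-Lyte fluorescence kinase assay with 0.22-0.92 ng GSK3β and 2 μM Ser/Thr 09 peptide in 50 mM HEPES pH 7.5, 10 mM MgCl2, 1 mM EGTA, 0.01% BRIJ-35. Kinase reaction 60 min at room temperature, then 60 min development. 10-point 3-fold titration from 10 μM in 1% DMSO, fitted to a sigmoidal dose-response curve.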

PCSK9 [2] = target: T1, PCSK9 (Homo sapiens, UniProt Q8NBP7, G670E/V474I); assay: Assay 3 - PCSK9 LDL-C uptake assay in HepG2 cells; type: cell-based; design: TEV cleavage site (C); His6 (C); host or cells: added to HepG2 cells (ATCC #HB-8065); conditions: 125 nM PCSK9, pHrodo Red-LDL, read-out: Assay 3 LDL uptake potency
Summary of the method: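 HepG2 cells seeded 24 h, then given compound (half-log series, top 10 μM) plus PCSK9 at 125 nM final for 24 h at 37 °C. pHrodo Red-LDL (6 μg/mL) added; uptake imaged at 4 h and 24 h. Signal normalized between DMSO and 100 nM evolocumab controls, four-parameter logistic fit.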

PCSK9 [3] = target: T1, PCSK9; assay: biochemical

T1 sequence (Q8NBP7 with tags, fused parts or gaps V474I/G670E): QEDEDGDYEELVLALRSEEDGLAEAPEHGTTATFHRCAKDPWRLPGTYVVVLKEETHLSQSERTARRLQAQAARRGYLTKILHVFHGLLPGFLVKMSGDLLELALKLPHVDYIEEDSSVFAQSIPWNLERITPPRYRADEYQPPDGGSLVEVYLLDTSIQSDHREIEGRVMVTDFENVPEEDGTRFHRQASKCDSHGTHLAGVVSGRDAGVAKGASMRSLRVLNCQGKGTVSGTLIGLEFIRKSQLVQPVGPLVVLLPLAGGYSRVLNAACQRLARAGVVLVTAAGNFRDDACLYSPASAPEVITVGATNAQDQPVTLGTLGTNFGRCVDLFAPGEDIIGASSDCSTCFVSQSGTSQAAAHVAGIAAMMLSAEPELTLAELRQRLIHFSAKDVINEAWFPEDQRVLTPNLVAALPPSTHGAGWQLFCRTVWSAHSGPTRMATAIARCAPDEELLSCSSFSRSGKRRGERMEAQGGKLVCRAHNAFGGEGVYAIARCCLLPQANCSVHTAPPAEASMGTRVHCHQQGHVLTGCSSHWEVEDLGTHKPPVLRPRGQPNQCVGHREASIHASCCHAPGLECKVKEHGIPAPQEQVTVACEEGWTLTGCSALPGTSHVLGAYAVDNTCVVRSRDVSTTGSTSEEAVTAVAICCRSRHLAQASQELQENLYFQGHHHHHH
Sequence of GSK3β (Glycogen synthase kinase-3 beta) (P49841 whole entry): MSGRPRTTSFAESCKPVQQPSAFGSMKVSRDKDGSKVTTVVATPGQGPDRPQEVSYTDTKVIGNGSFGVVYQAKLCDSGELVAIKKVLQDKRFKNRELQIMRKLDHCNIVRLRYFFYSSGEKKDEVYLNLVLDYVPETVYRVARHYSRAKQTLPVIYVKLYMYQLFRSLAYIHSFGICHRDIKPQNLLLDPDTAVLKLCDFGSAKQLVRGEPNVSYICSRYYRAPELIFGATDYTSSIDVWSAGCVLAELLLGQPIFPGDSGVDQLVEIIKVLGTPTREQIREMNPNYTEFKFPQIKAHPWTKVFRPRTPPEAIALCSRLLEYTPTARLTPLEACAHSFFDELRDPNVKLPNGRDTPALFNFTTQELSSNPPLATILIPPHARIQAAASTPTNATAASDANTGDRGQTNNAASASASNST

Row | SMILES | IC50 [1] | EC50 (PCSK9 [2]) | IC50 (PCSK9 [3])
1 | Cc1cccn(-c2ccc(N[C@H]3CC[C@H](Nc4cnc(Cl)cn4)C3)nc2)c1=O [Example 24, 6′-(((1S,3S)-3-((5-Chloropyrazin-2-yl)amino)cyclopentyl)amino)-3-methyl-2H-[1,3′-bipyridin]-2-one] | > 10 µM | 400 nM | 4.3 nM
2 | Cn1c(=O)n(-c2ccc(N[C@H]3CC[C@H](Nc4cnc(Cl)cn4)C3)nc2)c2ccccc21 [Example 27, 1-(6-(((1S,3S)-3-((5-Chloropyrazin-2-yl)amino)cyclopentyl)amino)pyridin-3-yl)-3-methyl-1,3-dihydro-2H-benzo[d]imidazol-2-one] | > 10 µM | 100 nM | 1.7 nM
3 | O=c1ccc(-c2ccc(F)cc2)cn1-c1ccc(N[C@H]2CC[C@H](Nc3cnc(Cl)cn3)C2)nc1 [Example 32, 6′-(((1S,3S)-3-((5-Chloropyrazin-2-yl)amino)cyclopentyl)amino)-5-(4-fluorophenyl)-2H-[1,3′-bipyridin]-2-one] | > 10 µM | 200 nM | 7.9 nM
4 | O=C(O)c1ccc(=O)n(-c2ccc(N[C@H]3CC[C@H](Nc4cnc(Cl)cn4)C3)nc2)c1 [Example 33, 6′-(((1S,3S)-3-((5-Chloropyrazin-2-yl)amino)cyclopentyl)amino)-2-oxo-2H-[1,3′-bipyridine]-5-carboxylic acid] | > 10 µM | 100 nM | 12 nM
5 | O=c1ccc2ccccc2n1-c1ccc(N[C@H]2CC[C@H](Nc3cnc(Cl)cn3)C2)nc1 [Example 35, 1-(6-(((1S,3S)-3-((5-Chloropyrazin-2-yl)amino)cyclopentyl)amino)pyridin-3-yl)quinolin-2 (1H)-one] | > 10 µM | 100 nM | 2 nM
6 | COc1cccn(-c2ccc(N[C@H]3CC[C@H](Nc4cnc(C)cn4)C3)nc2)c1=O [Example 36, 3-Methoxy-6′-(((1S,3S)-3-((5-methylpyrazin-2-yl)amino)cyclopentyl)amino)-2H-[1,3′-bipyridin]-2-one] | > 10 µM | 100 nM | 4.1 nM
7 | Cc1cnc(N[C@H]2CC[C@H](Nc3ccc(-n4c(=O)ccc5cccnc54)cn3)C2)cn1 [Example 37, 1-(6-(((1S,3S)-3-((5-Methylpyrazin-2-yl)amino)cyclopentyl)amino)pyridin-3-yl)-1,8-naphthyridin-2(1 H)-one] | > 10 µM | 200 nM | 6.5 nM
8 | Cc1cnc(N[C@H]2CC[C@H](Nc3ccc(-n4c(=O)n(C)c5cccnc54)cn3)C2)cn1 [Example 42, 1-Methyl-3-(6-(((1S,3S)-3-((5-methylpyrazin-2-yl)amino)cyclopentyl)amino)pyridin-3-yl)-1,3-dihydro-2H-imidazo[4,5-b]pyridin-2-one] | > 10 µM | 200 nM | 5.8 nM
9 | Cc1cnc(N[C@H]2CC[C@H](Nc3ccc(-n4cccc(C)c4=O)cn3)C2)cn1 [Example 44, 3-Methyl-6′-(((1S,3S)-3-((5-methylpyrazin-2-yl)amino)cyclopentyl)amino)-2H-[1,3′-bipyridin]-2-one] | > 10 µM | 300 nM | 5.5 nM
10 | Cc1cnc(N[C@H]2CC[C@H](Nc3ccc(-n4c(=O)n(C)c5ccccc54)cn3)C2)cn1 [Example 45, 1-Methyl-3-(6-(((1S,3S)-3-((5-methylpyrazin-2-yl)amino)cyclopentyl)amino)pyridin-3-yl)-1,3-dihydro-2H-benzo[d]imidazol-2-one] | > 10 µM | 200 nM | 1.5 nM
11 | Cc1cnc(N[C@H]2CC[C@H](Nc3ccc(-n4c(=O)[nH]c5ccccc54)cn3)C2)cn1 [Example 46, 1-(6-(((1S,3S)-3-((5-Methylpyrazin-2-yl)amino)cyclopentyl)amino)pyridin-3-yl)-1,3-dihydro-2H-benzo[d]imidazol-2-one] | > 10 µM | 700 nM | 3 nM
12 | Cc1cnc(N[C@H]2CC[C@H](Nc3ccc(-n4cccc(Cl)c4=O)cn3)C2)cn1 [Example 47, 3-Chloro-6′-(((1S,3S)-3-((5-methylpyrazin-2-yl)amino)cyclopentyl)amino)-2H-[1,3′-bipyridin]-2-one] | > 10 µM | 100 nM | 2.1 nM
13 | Cn1c(=O)n(-c2ccc(N[C@H]3CC[C@H](Nc4cnc(OC(F)F)cn4)C3)nc2)c2ccccc21 [Example 82, 1-(6-(((1S,3S)-3-((5-(Difluoromethoxy)pyrazin-2-yl)amino)cyclopentyl)amino)pyridin-3-yl)-3-methyl-1,3-dihydro-2H-benzo[d]imidazol-2-one] | > 10 µM | 200 nM | 2.5 nM
14 | COc1cccn(-c2ccc(N[C@H]3CC[C@H](Nc4cnc(OC(F)F)cn4)C3)nc2)c1=O [Example 94, 6′-(((1S,3S)-3-((5-(Difluoromethoxy)pyrazin-2-yl)amino)cyclopentyl)amino)-3-methoxy-2H-[1,3′-bipyridin]-2-one] | > 10 µM | 300 nM | 7.7 nM
15 | Cc1cnc(N[C@H]2CC[C@H](Nc3ccc(-n4cccc(C#N)c4=O)cn3)C2)cn1 [Example 103, 6′-(((1S,3S)-3-((5-Methylpyrazin-2-yl)amino)cyclopentyl)amino)-2-oxo-2H-[1,3′-bipyridine]-3-carbonitrile] | > 10 µM | 200 nM | 5.7 nM
16 | COc1cccn(-c2ccc(N[C@H]3CC[C@H](Nc4cnc(C5CC5)cn4)C3)nc2)c1=O [Example 106, 6′-(((1S,3S)-3-((5-Cyclopropylpyrazin-2-yl)amino)cyclopentyl)amino)-3-methoxy-2H-[1,3′-bipyridin]-2-one] | > 10 µM | 200 nM | 4.5 nM
17 | COc1ccnn(-c2ccc(N[C@H]3CC[C@H](Nc4cnc(C)cn4)C3)nc2)c1=O [Example 226, 4-Methoxy-2-(6-(((1S,3S)-3-((5-methylpyrazin-2-yl)amino)cyclopentyl)amino)pyridin-3-yl)pyridazin-3 (2H)-one] | > 10 µM | 200 nM | 4 nM
